Data reported in patent US8740843B2, “Coated balloon catheter” (Cook Medical Technologies LLC, priority 2009, dated 2014).

Assay: Elution of paclitaxel from coated balloon catheter assemblies in porcine serum elution medium (HPLC)
Format: physicochemical
Conditions: contrast media vs saline
Method: The rate of paclitaxel elution in each of the paclitaxel-coated balloon catheter assemblies described in Example 1 is analyzed in a porcine serum at 37° C. The coated balloon catheter assemblies are then divided into two groups, A and B. The coated balloon catheter assembly in Group A is designated to deliver a saline solution through the apertures of the outer balloon, while the coated balloon catheter assembly in Group B is designated to deliver a contrast media through the apertures of the outer balloon. The contrast media used is ISOVUE®-370 of Bracco Diagnostics (Princeton, N.J.), which included 370 mgl/mL of Iopamidol.
The coated balloon catheter assemblies, expanded to 4 ATM, is contacted with the porcine serum elution medium and continuously stirred for a desired period of time (e.g., at least one hour) selected to gradually dissolve the paclitaxel at a rate similar to dissolution in blood. […] The amount of the paclitaxel dissolved is measured as a function of time by monitoring with High Performance Liquid Chromatography (HPLC) the porcine serum elution medium after contact with the coated balloon catheter assembly. […] The outer balloon of each of the coated balloon catheter assemblies is then detached from the assembly and analyzed using HPCL to measure the amount of paclitaxel left on the coated outer balloon after being in contact with the elution medium for 60 minutes.

For `CC(=O)O[C@H]1C(=O)[C@@]2(C)[C@H]([C@H](OC(=O)c3ccccc3)[C@]3(O)C[C@H](OC(=O)[C@H](O)[C@@H](NC(=O)c4ccccc4)c4ccccc4)C(C)=C1C3(C)C)[C@]1(OC(C)=O)CO[C@@H]1C[C@@H]2O` [paclitaxel], the “lower amount of PTX on the outer balloon than Group A balloon catheters” value (after 60 minutes) was no more than 15% and the “PTX elutes faster than Group A balloon catheters” value (time period of 2 to 10 minutes) was 2-3 times.
